{"source": "paper PMC13077603", "about": "“Fluorine‐18‐Labeled Nucleotide Analogs Targeting Ecto‐5'‐Nucleotidase (CD73) for Positron Emission Tomography Imaging of Solid Tumors” (Angewandte Chemie (International Ed. in English), 2026)", "key": {"[1]": {"assay": "logD7.4 determination of radiotracers (PBS/octan-1-ol)", "format": "physicochemical", "settings": "octan-1-ol/PBS; PBS pH 7.4 / octan-1-ol, radiotracer", "procedure": "The logD 7.4 values of both radiotracers were determined using a previously described method based on their distribution between phosphate‐buffered saline (PBS) and octan‐1‐ol.\nTriazole radiotracers (~400 kBq) in PBS buffer (10 µL, pH 7.4) were added to PBS buffer (590 µL, pH 7.4) and octan-1-ol (600 µL). The two-layer mixture was shaken for 3 min on a vortex mixer at r.t. and centrifuged (200 g) for 5 min. The main part of the octanol layer (400 µL) was carefully collected and transferred to a new tube containing PBS buffer (400 µL, pH 7.4). The two-layer mixture was shaken again for 10 min and centrifuged for 5 min (200 g). Three samples were prepared, and two aliquots (á 100 µL) of both layers were measured in a gamma-counter 2480 Wizard2 (Perkin-Elmer, Waltham, USA). The partition coefficient was determined by dividing cpm (octanol) by cpm (PBS) and indicated as logD7.4 (exp.)."}, "[2]": {"target": "T1, Soluble recombinant human CD73 (Homo sapiens, UniProt P21589)", "T1 sequence (P21589 27-549 limits assumed)": "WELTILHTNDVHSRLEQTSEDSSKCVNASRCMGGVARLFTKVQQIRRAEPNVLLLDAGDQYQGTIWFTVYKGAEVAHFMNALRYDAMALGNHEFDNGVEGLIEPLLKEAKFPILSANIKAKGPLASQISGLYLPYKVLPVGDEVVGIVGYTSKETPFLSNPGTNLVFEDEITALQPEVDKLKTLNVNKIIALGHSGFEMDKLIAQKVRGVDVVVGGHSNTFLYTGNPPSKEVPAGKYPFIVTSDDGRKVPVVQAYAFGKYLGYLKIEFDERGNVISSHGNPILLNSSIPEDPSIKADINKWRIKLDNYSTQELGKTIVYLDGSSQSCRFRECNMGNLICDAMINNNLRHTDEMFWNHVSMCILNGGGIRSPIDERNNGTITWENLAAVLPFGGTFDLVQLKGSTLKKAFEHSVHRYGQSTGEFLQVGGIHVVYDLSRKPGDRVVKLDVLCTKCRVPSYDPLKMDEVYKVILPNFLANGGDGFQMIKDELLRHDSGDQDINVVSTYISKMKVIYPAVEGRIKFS", "assay": "CD73 enzyme inhibition assay, soluble recombinant human CD73", "format": "biochemical", "settings": "soluble recombinant human CD73, Km 17 µM, substrate AMP (5 µM)", "procedure": "Both compounds were evaluated for metabolic stability in mouse liver microsomes (MLM) and plasma protein binding (PPB) (Table 1).\nThe CD73 enzyme inhibition assay of recombinant soluble CD73, membrane-bound human CD73, soluble rat CD73 and mouse CD73 was performed as previously described.^[16,35^]"}, "[3]": {"assay": "PET/gamma counter biodistribution in healthy mice", "format": "in vivo, C57BL/6 WT mice", "procedure": "Next, biodistribution studies of compounds [^18F]1 and [^18F]2 were performed in female C57BL/6 WT mice. Dynamic (0–90 min), static (77–90 min), and late (240–260 min) scans were performed in a small animal PET scanner. Each PET scan was combined with computer tomography (CT). In the case of [^18F]2, […] of the tracer was excreted within the first 30 min via renal (19%ID) and hepatobiliary (60%ID, Figure 5A–C) routes. After 90 min, most of the tracer was found in the intestine, gallbladder, bladder (urine), and liver, while only 0.3 ± 0.1 %ID/mL of the radiosignal was detected in the blood at that time point (Figure 5B, C). Concentrations in the lung, heart, muscle, and brain were also relatively low. Nevertheless, during the first 3 min, the tracer was distributed within the whole body, reaching every tissue (Figure 5A).\nThe radiotracer [^18F]1 was injected into the tail vein, entered the heart, and was subsequently distributed throughout the whole body. […] Nearly no tracer accumulated in brain and urinary bladder, facilitating a favorable signal‐to‐noise ratio. We prolonged the imaging and performed an additional PET scan after 260 min to further increase the signal‐to‐background ratio. In all investigated residual organs (kidney, lung, heart, liver, and spleen), [^18F]1 was present even after 260 min, indicating a favorable biodistribution and high metabolic stability in vivo (Figure 5F).\nAdult C57bl/6 (biodistribution study, 19.8±1.3 g) or tumor-bearing NSG mice (22.2±2.2 g) were anesthetized by isoflurane/O2, and one lateral tail vein was cannulated using a 27 G needle. A respective radiotracer (~ 390 kBq/g body weight) was injected as a bolus via the tail vein, and subsequent PET scanning was performed. A ~1000-fold excess of unlabeled JMS0414 (14 for [^18F]MRS-4648 ([^18F]2)), unlabeled PSB-19427 (1), or PSB-12651 (15) (for [^18F]PSB-19427 ([^18F]1)) was injected into a subgroup of tumor-bearing mice 10 min before radiotracer injection in the blocking studies. PET imaging studies were carried out using a submillimeter high resolution (0.7 mm full width at half-maximum) small animal scanner (32 module quadHIDAC, Oxford Positron Systems Ltd., Oxford, UK) with a uniform spatial resolution (<1 mm) over a large cylindrical field (165 mm diameter, 280 mm axial length). List-mode data were acquired for 90 min and reconstructed into dynamic time frames using an iterative reconstruction algorithm. In a subgroup of mice, measurements were complemented by late time point PET scans for 20 min 4 h after injection. Subsequently, after PET acquisitions, the scanning bed was transferred to the computed tomography (CT) scanner (Inveon, Siemens Medical Solutions, U.S.), and a CT acquisition with a spatial resolution of 80 μm was performed for each mouse. Final acquisitions were performed as contrast-enhanced CT with i.v. injection of iopromid (Ultravist®370). Reconstructed image data sets were coregistered based on extrinsic markers attached to the multimodal scanning bed, and the in-house developed image analysis software MEDgical (EIMI) was used for quantification. Three-dimensional volumes of interest (VOIs) were defined over the respective organs in CT data sets, transferred to the coregistered PET data, and analyzed quantitatively. Regional uptake was calculated as the percentage of injected dose by dividing counts per min (cpm) in the VOI by total counts in the mouse multiplied by 100 (%ID/mL). The clearance of the radiotracers was calculated based on the PET results. PET imaging studies using [^18F]FDG were performed analogously with a few variations. List-mode data were acquired for 60-75 min after tracer injection and reconstructed using an iterative reconstruction algorithm. Additionally, the scanned mice remained alive after PET and CT scans and were used the next day for imaging experiments with [^18F]PSB-19427 ([^18F]1) for direct comparison of [^18F]FDG and [^18F]PSB-19427 ([^18F]1). […]"}}, "data": [{"molecule": "CCCN(Cc1ccc(-c2cn(CC[18F])nn2)cc1)c1nc(Cl)nc2c1ncn2[C@@H]1O[C@H](COP(=O)(O)CP(=O)(O)O)[C@@H](O)[C@H]1O", "note": "[[^18F]1, [^18F]-[((2R,3S,4R,5R)-5-{2-chloro-6-[(4-{1-[2-(fluoro)ethyl]-1H-1,2,3-triazol-4-yl}benzyl)-(propyl)amino]-9H-purin-9-yl}-3,4-dihydroxytetrahydrofuran-2-yl)methoxy]methylene-bisphosphonic acid]", "values": [{"measurement": "logD", "setting": "[1]", "value": -0.12}, {"measurement": "Ki", "setting": "[2]", "value": "1.02 ± 0.11", "unit": "nM"}, {"measurement": "Hepatobiliary excretion route", "setting": "[3]; at 90 min p.i.", "value": 37, "unit": "%ID"}, {"measurement": "Radiosignal proportion in the blood", "setting": "[3]; at 90 min p.i.", "value": "18.2% ± 1.7 %ID/g"}, {"measurement": "Renal excretion route", "setting": "[3]; time not given", "value": 2, "unit": "%ID"}]}, {"molecule": "Cn1c(=O)n([C@@H]2O[C@H](COP(=O)(O)CP(=O)(O)O)[C@@H](O)[C@H]2O)cc/c1=N/OCc1ccc(-c2cn(CC[18F])nn2)cc1", "note": "[[^18F]2, [^18F]-{[(2R,3S,4R,5R)-5-(4-{[(4-{1-[2-(fluoro)ethyl]-1H-1,2,3-triazol-4-yl}benzyl)-oxy]imino}-3-methyl-2-oxo-3,4-dihydropyrimidin-1(2H)-yl)-3,4-dihydroxytetra-hydrofuran-2-yl]methoxy}methylenebisphosphonic acid]", "values": [{"measurement": "logD", "setting": "[1]", "value": "0.74 ± 0.29"}, {"measurement": "Ki", "setting": "[2]", "value": "0.664 ± 0.089", "unit": "nM"}, {"measurement": "Radiosignal in blood", "setting": "[3]; after 90 min", "value": "0.3 ± 0.1", "unit": "%ID/mL"}, {"measurement": "Hepatobiliary excretion", "setting": "[3]; within the first 30 min", "value": 60, "unit": "%ID"}, {"measurement": "Renal excretion", "setting": "[3]; within the first 30 min", "value": 19, "unit": "%ID"}, {"measurement": "Fraction of tracer excreted", "setting": "[3]; within the first 30 min, i.v., female C57BL/6 WT mice", "value": "> 95", "unit": "%"}]}, {"molecule": "CCCN(Cc1ccc(-c2cn(CCF)nn2)cc1)c1nc(Cl)nc2c1ncn2[C@@H]1O[C@H](COP(=O)(O)CP(=O)(O)O)[C@@H](O)[C@H]1O", "note": "[compound 1]", "values": [{"measurement": "logD", "setting": "[1]", "value": "-0.12 ± 0.03"}, {"measurement": "Ki", "setting": "[2]", "value": 1.02, "unit": "nM"}]}]}
